Experimental data taken from US20180207228A1, “PEPTIDE COMBINATIONS AND USES THEREOF FOR TREATING GRASS ALLERGY” (ALK-Abelló A/S, priority 2015, published 2018).
Entries after “also recorded” stand apart in the source; their conditions may differ. Where no end group is shown, it is not given here.

Experiments:
[1] = tested on: grass allergic donor derived T cell lines (TCL-02 DK-2); test: Cross-reactivity of homologue peptides, proliferation on TCL02-DK2 (Study XR1); type: cell-based, human; settings: for experimental cross-reactivity: 2 μg/ml, TCL02-DK2, 21 donors
Experimental: To measure the experimental cross-reactivity the proliferation assay of Example 3 was carried out on 21 grass allergic donors (TCL02-DK2). […] Cross-reactivity to Phleum pratense peptides with either close (Lolium perenne (Lol p)) or distant (Phalaris aquatica (Pha a), Cynodon dactylon (Cyn d)) species was experimentally investigated.
For analysing the cross-reactivity data, it was investigated if a donor responds to both native and homologue peptide, XY correlation plots were made where the donor responses to native peptides were plotted versus the donor responses to homologues. […] If less than five donors were responding to the parent peptides, then the data was considered to be in-conclusive, and were thus labelled with “-”. For some of the peptides the analysis was further supported by performing a Spearman r-Non Parametric test (data not shown).
Further the magnitude of T cell response from a parent peptide as defined herein and homologue response were plotted in a XY plot by using GraphPad Prism 6.
To measure the experimental cross-reactivity, the proliferation assay of Example 3 was carried out on 21 grass pollen allergic donors (TCL02-DK2, Study XR1) and 20 grass pollen allergic donors (TCL03−DK1+DK2, Study XR2). […] In Study XR1, Cross-reactivity to Phleum pratense peptides with either close (Lolium perenne-Lol p) or distant ([…]-Pha a, Cynodon dactylon-Cyn d) species was experimentally investigated. In Study XR1, 67 homologue peptides corresponding to 41 native Phleum pratense peptides were investigated together with the 41 Phleum pratense peptides at a concentration of 2 μg/ml. Similarly, study XR2 was carried out on 20 grass pollen allergic donors where donor derived TCL-03 lines were used to investigate Phleum pratense cross-reactivity to Poa pratensis (Poa p), Dactylis glomerata (Dac g), Festuca pratensis (Fes p), Paspalum notatum (Pas n), Sorghum halepense (Sor h), Lolium perenne (Lol p), Phalaris aquatica (Pha a) and Cynodon dactylon (Cyn d).

[2] = Extended solubility and short term stability study (visual, U-HPLC recovery, DLS, 90LS, UV-VIS, sum of scores); settings: for solubility: pH 4.5
Experimental: For that purpose, the peptides were provided as acetate salts (produced by Innovagen® at a >10 mg scale of manufacturing). To take into account batch-to-batch variations, some peptides were tested from other batches of the manufacturer Innovagen®, as well as from another manufacturer (Almac) and from in-house production. Solubility experiments were performed on peptide in solution in concentrations ranging from 0.5 mg/mL to 3 mg/mL (dry matter)—with the following solvents: • Water • Acetate buffer, pH 4.5 (25 mM sodium acetate containing 250 mM D-Mannitol) • Phosphate buffer, pH 7.0 (25 mM sodium phosphate containing 250 mM D-Mannitol) • Glycine buffer, pH 8.5 (25 mM glycine containing 250 mM D-Mannitol)
The solubility of the peptides was initially investigated by visual inspection and U-HPLC recovery. Visual inspection included assessment of turbidity and presence of particles/aggregates of each peptide solution before and after centrifugation as well as visual inspection of pelleted material. The visual inspection were reported as “clear solution”, “very small precipitation only visible with a magnifier”, “precipitation visible/turbid solution” or “more precipitation/turbid solution”. Filtration of peptide solutions were conducted using syringe based filters containing a polyethersulfone (PES) membrane chemistry and a pore size of 0.2 μm. The amount of the peptide in the supernatant of a filtered sample was determined using U-HPLC with reverse phase chromatography and recovery were determined as described in Example 5.
Peptide solutions were investigated at a time point of 1 hour after production, but were also repeated at later time point (e.g. 24. 48 or 96 hours) to investigate the stability of the peptides.
Peptide solutions were investigated to determine the presence of turbidity/particles/aggregates by use of optical density (OD) and change in UV-VIS absorbance at a wavelength of 320 nm, of the filtrate. […] In addition or as an alternative, the amount of the peptide in the supernatant of a filtered sample was determined using U-HPLC as described above, with the exception that the recovery was determined by dividing the peak area of the filtered sample in relation to the peak area in the original solution prior to filtration. See also Example 5 for further details regarding UV-VIS, and recovery measured by U-HPLC.
The peptides were scored in relation to the outcome of the above mentioned tests: For each peptide in a given buffer and at a given concentration, a sum of test scores was calculated and the sum used to rank the peptides according to solubility: • 1. […] DLS peak 1 number 3 nm gave a score of 1, 3-10 nm gave a score of 2, 10-100 nm gave a score of 3, >100 nm gave a score of 4. • 5. 90LS at 400 nm: Intensity <450 gave a score of 1, <800 gave a score of 2, >800 gave a score of 3. • 6. UV-VIS change in absorbance at 320 nm within 24 hours: 0.01 gave a score of 1, ≤0.05 gave a score of 2, 0.0.2 gave a score of 3 and >0.2 gave a score of 4.

[3] = tested on: grass pollen allergic donor derived TCL-03 lines; test: Extended cross-reactivity study, proliferation on TCL03 DK1+DK2 (Study XR2), scoring; type: cell-based, human; settings: study XR2; for Cross-reactivity score, Cyn d: homologue from Cyn d; for Cross-reactivity score, Dac g: homologue from Dac g; for Cross-reactivity score, Fes p: homologue from Fes p; for Cross-reactivity score, Lol p: homologue from Lol p; for Cross-reactivity score, Pas n: homologue from Pas n; for Cross-reactivity score, Pha a: homologue from Pha a; for Cross-reactivity score, Poa p: homologue from Poa p; for Cross-reactivity sum: scores of all species added; for Cross-reactivity/species: sum divided by the number of species measured
[4] = Peptide solubility by visual inspection; type: physicochemical; settings: for Visual inspection: first solubility screening, TFA salts, 1-7 mg/mL solutions in DMSO; for Visual inspection after 60 min pH 7 / Visual inspection after centrifugation pH 7: 250 mM D-Mannitol and 25 mM sodium phosphate
Experimental: Water (pH 3-5) • 2. 250 mM D-Mannitol and 25 mM sodium acetate, pH 4.5 • 3. 250 mM D-Mannitol and 25 mM sodium phosphate, pH 7.0 • 4. […] Water (pH 3-5) • 2. 250 mM D-Mannitol and 25 mM sodium acetate, pH 4.5 • 3. 250 mM D-Mannitol and 25 mM sodium phosphate, pH 7.0 • 4. […] A subset of the peptides was selected as candidate peptides for a final peptide mixture. […] During the solubility studies the peptide-containing solutions were inspected visually before and after filtration for turbidity, and presence of particles/aggregates. In addition, presence of turbidity/particles/aggregates was also detected by optical density (OD) or absorbance of filtered material, but might also be detected by size-exclusion chromatography. Furthermore, Sub-visual particles may also be detected by dynamic light scattering (DLS) analysis on filtered and non-filtered peptide containing solutions. Samples were furthermore subjected to centrifugation to allow for the possible visual inspection of pelleted material.

[5] = tested on: allergen specific T cells; test: T cell proliferation assay (72 h) on donor derived T cell lines (TCL02/TCL03); type: cell-based, human; settings: single peptide
Summary of the method: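 CD8-depleted PBMCs from grass-allergic donors stimulated with natural grass allergen mix (nPhl p 1 0.5 μg/ml) to raise T cell lines; restimulated with irradiated APCs, allergens or PHA-P (0.5 μg/ml) plus rIL-2. Proliferation to overlapping 20-mer and selected 15-mer grass peptides tested with TCL02 (day 24) or TCL03 (day 34).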

[6] = 3 mg/mL, acetate salt, non-filtered
[7] = 3 mg/mL, acetate salt, non-filtered, after centrifugation

For GRGSGSSFEIKSTKPEASSG-OH [compound 202], the experimental cross-reactivity [1] was “showed cross-reactivity”.
With AGYTPAAPAGAEPAGKATTE-OH [peptide 228] the “solubility in aqueous solutions and short-term stability” value [2] was “sufficiently soluble” and the solubility [2] was “acceptable solubility”.
With “Ac-STGGAYESYKFIPALEAAVK-OH [compound 260]” the “solubility by ranking scheme based on a sum of scores” value (shortened to “solubility by ranking scheme based”) [2] was “good solubility” and the “solubility in aqueous solutions and short-term stability” value [2] was “sufficiently soluble”.
With GDEQKLRSAGELELQFRRVK-OH [compound 206] the “Cross-reactivity score, Cyn d” value ([3]; score 0 to 7) was 0, the “Cross-reactivity score, Dac g” value ([3]; score 0 to 7) was 2 and the “Cross-reactivity score, Fes p” value ([3]; score 0 to 7) was 2. For the same compound, the “Cross-reactivity score, Lol p” value ([3]; score 0 to 7) was 2, the “Cross-reactivity score, Pas n” value ([3]; score 0 to 7) was 0 and the “Cross-reactivity score, Pha a” value ([3]; score 0 to 7) was 1. For the same compound, the “Cross-reactivity score, Poa p” value ([3]; score 0 to 7) was 0.5, the “Cross-reactivity score, Sor h” value ([3]; homologue from Sor h, score 0 to 7) was 0.5 and the Cross-reactivity sum [3] was 8. For the same compound, the Cross-reactivity/species [3] was 1, the “solubility in all the test samples (concentrations and pH tested), all solubility tests” value [2] was “good solubility” and the “solubility in aqueous solutions and short-term stability” value [2] was “sufficiently soluble”. For the same compound, the solubility [2] was “acceptable solubility” and the “solubility, 1st round of solubility screening” value (from here on “solubility, 1st round”) [4] was “soluble”.
For AEVELRQHGSEEWEPLTKKG-OH [compound 063], the Visual inspection [4] was “+”.
For EAKYDAYVATLSEALRIIAG-OH [peptide 233], the experimental cross-reactivity [1] was “showed cross-reactivity; also recorded: good cross reactivity”.
In the case of VVAVDIKEKGKDKWIELKES-OH [compound 021], the Visual inspection [4] was “++”.
For WLDAKSTWYGKPTGAGPKDN-OH [peptide 201], the “solubility in aqueous solutions and short-term stability” value [2] was “sufficiently soluble”, the solubility [2] was “acceptable solubility” and the “solubility, 1st round” value [4] was “soluble”.
For SMGDDHFWAVRGGGGESFGI-OH [peptide 226], the “solubility in aqueous solutions and short-term stability” value [2] was “sufficiently soluble”, the solubility [2] was “acceptable solubility” and the “solubility, 1st round” value [4] was “soluble”.
For `CC[C@H](C)[C@H](NC(=O)[C@@H](NC(=O)[C@H](CC(=O)O)NC(=O)[C@H](CCC(=O)O)NC(=O)[C@H](C)NC(=O)[C@H](CCC(=O)O)NC(=O)[C@@H](N)[C@@H](C)O)C(C)C)C(=O)N1CCC[C@H]1C(=O)N[C@@H](CCC(=O)O)C(=O)NCC(=O)N[C@@H](Cc1c[nH]c2ccccc12)C(=O)N[C@@H](CCCCN)C(=O)N[C@@H](C)C(=O)N[C@@H](CC(=O)O)C(=O)N[C@H](C(=O)N[C@@H](CO)C(=O)N[C@@H](Cc1ccc(O)cc1)C(=O)N[C@@H](CCC(=O)O)C(=O)N[C@@H](CO)C(=O)N[C@@H](CCCCN)C(=O)O)[C@@H](C)O` [peptide 213], the experimental cross-reactivity [1] was “showed cross-reactivity”.
With HGSEEWEPLTKKGNVWEVKS-OH [compound 218] the experimental cross-reactivity [1] was “showed cross-reactivity”.
With TPDKLTGPFTVRYTTEGGTK-OH [compound 024] the Visual inspection [4] was “++”.
With GGASGYKDVDKPPFSGMTGS-OH [compound 006] the Visual inspection [4] was “+”.
For TKKGNVWEVKSSKPLVGPFN-OH [peptide 219], the experimental cross-reactivity [1] was “showed cross-reactivity”.
In the case of KDKWIELKESWGAIWRIDTP-OH [peptide 210], the experimental cross-reactivity [1] was “showed cross-reactivity”.
In the case of “Ac-STGGAYESYKFIPALEAAVK-NH2 [compound 262]”, the “solubility by ranking scheme based” value [2] was “good solubility” and the “solubility in aqueous solutions and short-term stability” value [2] was “sufficiently soluble”.
In the case of AGELELQFRRVKSKYPEGTK-OH [peptide 207], the “Cross-reactivity score, Cyn d” value ([3]; score 0 to 7) was 0, the “Cross-reactivity score, Dac g” value ([3]; score 0 to 7) was 3 and the “Cross-reactivity score, Fes p” value ([3]; score 0 to 7) was 6. For the same compound, the “Cross-reactivity score, Lol p” value ([3]; score 0 to 7) was 6, the “Cross-reactivity score, Pas n” value ([3]; score 0 to 7) was 0.5 and the “Cross-reactivity score, Pha a” value ([3]; score 0 to 7) was 6. For the same compound, the “Cross-reactivity score, Poa p” value ([3]; score 0 to 7) was 1, the Cross-reactivity sum [3] was 22.5 and the Cross-reactivity/species [3] was 3.2. For the same compound, the “solubility in all the test samples (concentrations and pH tested), all solubility tests” value [2] was “good solubility”, the “solubility in aqueous solutions and short-term stability” value [2] was “sufficiently soluble” and the solubility [2] was “acceptable solubility”. The “T cell response in % of the donors tested” value [5] was roughly 40%, the “solubility in aqueous solutions” value [4] was “surprisingly good solubility in aqueous solutions” and the “solubility, 1st round” value [4] was “soluble”. For the same compound, the “Visual inspection after 60 min pH 7” value [4, 6] was “tread +” and the “Visual inspection after centrifugation pH 7” value [4, 7] was “+”.
In the case of STGGAYESYKFIPALEAAVK-NH2 [compound 261], the “solubility by ranking scheme based” value [2] was “good solubility” and the “solubility in aqueous solutions and short-term stability” value [2] was “sufficiently soluble”.
With AYRTAATAANAAPAN-OH [compound 353] the Cross-reactivity score ([1]; homologue of peptide 241 (Phl p 5), Table 51, based on results from Study XR1 (score 5 upgraded to 7)) was 7 and the cross-reactivity of homologue ([1]; homologues of peptide 241, Study XR1) was “very high cross-reactivity”.
In the case of KEDFLGSLVKEIPPRLLYAK-OH [peptide 222], the “Cross-reactivity score, Cyn d” value ([3]; score 0 to 7) was 1, the Cross-reactivity sum [3] was 1 and the Cross-reactivity/species [3] was 1. The “solubility in aqueous solutions and short-term stability” value [2] was “sufficiently soluble”, the solubility [2] was “acceptable solubility” and the “solubility, 1st round” value [4] was “soluble”. The “Visual inspection after 60 min pH 4.5” value ([4]; 3 mg/mL, acetate salt, non-filtered, 250 mM D-Mannitol and 25 mM sodium acetate, pH 4.5) was “+ particles,”, the “Visual inspection after centrifugation pH 4.5” value ([4]; 3 mg/mL, acetate salt, non-filtered, 250 mM D-Mannitol and 25 mM sodium acetate, pH 4.5, after centrifugation) was “++” and the “Visual inspection after 60 min pH 7” value [4, 6] was “tread +”. For the same compound, the “Visual inspection after centrifugation pH 7” value [4, 7] was “++”.
With VRYTTEGGTKTEAEDVIPEG-OH [peptide 212] the “solubility in aqueous solutions and short-term stability” value [2] was “sufficiently soluble”, the solubility [2] was “acceptable solubility” and the “solubility, 1st round” value [4] was “soluble”.
